The values that follow come from patent publication US8557847B2, “Synergistic modulation of FLT3 kinase using a FLT3 inhibitor and a farnesyl transferase inhibitor” (Janssen Pharmaceutica, N.V., priority 2005, dated 2013).

The test system of one data set is MV4-11 AML cells. As to the kind of experiment: 72-hour cell proliferation assay, single agents and FTI/FLT3 inhibitor combinations, MV4-11. Format: cell-based. Conditions: Homo sapiens, IC50 of the FLT3 inhibitor, alone or within the labelled combination, average of three experiments. Here is the method:
Dose responses for the individual compounds alone were determined for each cell line using a standard 72-hour cell proliferation assay (see FIGS. 6.1-6.8). The standard chemotherapeutic agent Cytarabine was used as a control cytotoxic agent in all experiments. […] The FLT3 inhibitors, Compounds A, B, C, D, E, F G and H, individually have good potency (sub-micromolar) for the inhibition of FLT3 driven proliferation (compared to the first line cytotoxic agent Cytarabine and Tipifarnib) in cells that depend on FLT3 for growth. Each of these chemically distinct compounds alone has potential for the treatment of disorders related to FLT3, such as FLT3 positive AML. […]
To statistically evaluate the synergy of a FLT3 inhibitor and an FTI in FLT3 dependent cell lines, dosing combinations were evaluated by the method of Chou and Talalay. See Chou T C, Talalay P. (1984) “Quantitative analysis of dose-effect relationships: the combined effects of multiple drugs or enzyme inhibitors.” Adv Enzyme Regul. […] Using this method, multiple FTI and FLT3 combinations were evaluated. […]
Cell proliferation assay for MV4-11, Baf3-ITD, Baf3-FLT3 and THP-1 cells. […] Total cell growth is quantified as the difference in luminescent counts (relative light units, RLU) of cell number at Day 0 compared to total cell number at Day 3 (72 hours of growth and/or compound treatment). […]

The subject of a further data set is MV4-11 tumor xenografts. Conditions: for inhibition of mean tumor volume compared to vehicle-treated group: Day 11.
Data set [1] has as its target T1, FLT3 phosphorylation in MV4-11 tumors (Homo sapiens, UniProt P36888, INS600HVDFREYEYD).
T1 construct: host or cells: MV4-11 human AML cells (in culture, or as xenograft tumors in nude mice)
T1 sequence (P36888 with tags, fused parts or gaps INS600HVDFREYEYD): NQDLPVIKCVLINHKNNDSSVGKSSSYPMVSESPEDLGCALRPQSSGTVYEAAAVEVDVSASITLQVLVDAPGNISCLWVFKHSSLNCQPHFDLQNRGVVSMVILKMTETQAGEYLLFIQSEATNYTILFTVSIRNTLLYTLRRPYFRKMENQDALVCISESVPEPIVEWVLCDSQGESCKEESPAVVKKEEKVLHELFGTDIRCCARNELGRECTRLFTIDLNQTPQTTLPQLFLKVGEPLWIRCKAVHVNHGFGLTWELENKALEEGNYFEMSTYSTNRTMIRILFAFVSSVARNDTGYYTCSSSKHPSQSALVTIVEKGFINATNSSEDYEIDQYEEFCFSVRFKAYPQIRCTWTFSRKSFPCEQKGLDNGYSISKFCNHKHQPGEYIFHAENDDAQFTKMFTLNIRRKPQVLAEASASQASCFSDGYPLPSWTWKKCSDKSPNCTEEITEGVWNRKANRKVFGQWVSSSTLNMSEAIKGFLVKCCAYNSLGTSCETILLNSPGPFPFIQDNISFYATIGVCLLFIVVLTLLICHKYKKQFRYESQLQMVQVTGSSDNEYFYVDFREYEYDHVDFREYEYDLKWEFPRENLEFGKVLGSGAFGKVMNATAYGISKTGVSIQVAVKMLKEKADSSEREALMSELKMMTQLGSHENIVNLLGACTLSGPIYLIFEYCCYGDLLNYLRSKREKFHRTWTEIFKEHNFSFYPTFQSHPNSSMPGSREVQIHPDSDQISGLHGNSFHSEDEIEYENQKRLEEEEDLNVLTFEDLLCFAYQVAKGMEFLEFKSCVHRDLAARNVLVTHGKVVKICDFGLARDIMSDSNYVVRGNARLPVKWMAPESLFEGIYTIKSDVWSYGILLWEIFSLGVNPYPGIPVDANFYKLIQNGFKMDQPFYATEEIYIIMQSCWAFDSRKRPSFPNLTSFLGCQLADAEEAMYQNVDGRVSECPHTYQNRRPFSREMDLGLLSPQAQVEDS
As to the kind of experiment: FLT3 phosphorylation in MV4-11 tumors, Compound D. In kind it is in vivo, nude mice. Conditions: tumors harvested 6 hours later. Here is the method:
Tumors were harvested 6 hours later and snap frozen for assessment of FLT3 phosphorylation by western blots.
Harvested tumors were frozen and processed for immunoblot analysis of FLT3 phosphorylation in the following manner: 200 mg of tumor tissue was dounce homogenized in lysis buffer (50 mM Hepes, 150 mM NaCl, 10% Glycerol, 1% Triton —X-100, 10 mM NaF, 1 mM EDTA, 1.5 mM MgCl2, 10 mM NaPyrophosphate) supplemented with phosphatase (Sigma Cat# P2850) and protease inhibitors (Sigma Cat #P8340). Insoluble debris was removed by centrifugation at 1000×g for 5 minutes at 4° C.
Immunoprecipitated FLT3 from tumor lysates were then washed four times with lysis buffer and separated by SDS-PAGE. […] Blots were then stripped and reprobed with anti-FLT3 antibody for normalization of phosphorylation signals.

A further data set concerns MV-4-11 tumor xenografts. Briefly: MV-4-11 tumor xenografts, FLT3 inhibitor Compound D administered with Tipifarnib. Format: in vivo, nude mice. Conditions: Compound D 25 mg/kg bid oral, Day 16.

Read-outs that look alike come from different tables or passages of the source.

Source text for MV-4-11 tumor xenografts: The starting mean tumor volume for each treatment group was approximately 250 mm3.
Dosing was continued for sixteen consecutive days.

As to `CN(C)CC(=O)N1CCC(c2ccc(NC(=O)c3nc(C#N)c[nH]3)c(C3=CCCCC3)c2)CC1` [Compound 38, 4-Cyano-1H-imidazole-2-carboxylic acid {2-cyclohex-1-enyl-4-[1-(2-dimethylamino-acetyl)-piperidin-4-yl]-phenyl}-amide], in the data set with MV4-11 AML cells, the IC50 stood at 13.8 nM. Moreover, the “tumor growth compared to vehicle-treated control group” value in the data set with MV4-11 tumor xenografts (10 mg/kg b.i.d. oral) was “no significant growth delay”. In addition, the results for the final tumor weight entry in the data set on MV4-11 tumor xenografts (10 mg/kg dose) and with MV4-11 tumor xenografts (50 mg/kg dose) were “no significant decrease” and “no measurable tumor mass detectable”, respectively. For the same compound, the “tumor regression, decrease versus starting mean tumor volume on Day 1” value is 98% with MV4-11 tumor xenografts (50 mg/kg b.i.d. oral) and 93% in the data set with MV4-11 tumor xenografts (100 mg/kg b.i.d. oral). The “inhibition of mean tumor volume compared to vehicle-treated group” value with MV4-11 tumor xenografts (50 mg/kg b.i.d. oral) and with MV4-11 tumor xenografts (100 mg/kg b.i.d. oral) was approximately 100% in each case. For the same compound, the “mice with palpable, measurable tumor on study day 34” value in the data set on MV4-11 tumor xenografts (100 mg/kg, dosing stopped on Day 12, tumor allowed to re-grow) is given as 6/12. In addition, in the data set with MV4-11 tumor xenografts (across all dose groups), the “body weight compared to starting body weight” value is reported as “no significant loss of body weight”. Besides, the entries for the “level of FLT3 phosphorylation in MV4-11 tumors” value in data set [1] (single dose 10 mg/kg po) and in data set [1] (single dose 100 mg/kg po) were “partial reduction” and “biologically significant reduction”, respectively. Besides, the “inhibition of tumor volume compared to vehicle-treated control group” value in the data set with MV-4-11 tumor xenografts came to 76%.
